These results are taken from ChEMBL document CHEMBL2062409, “Conformationally-restricted cyclic sulfones as potent and selective mTOR kinase inhibitors” (Bioorg Med Chem Lett, 2012).

For series [1], the target named is T1, Phosphatidylinositol 4,5-bisphosphate 3-kinase catalytic subunit alpha isoform (Homo sapiens, UniProt P42336). Kind of series: Inhibition of PI3Kalpha.
Series [2] addresses T2, Serine/threonine-protein kinase mTOR (Homo sapiens, UniProt P42345). As to the kind of experiment: Inhibition of mTOR.
A short description of series [3]: Clearance in human liver microsomes assessed per mg of protein. In kind it is ADME, Microsome. The following applies: read-out: CLH. Background: Liver microsomes are vesicles of endoplasmic reticulum, rich in cytochrome P450 enzymes.
Series [4] in a line: Clearance in human hepatocytes assessed per million cells. In kind it is ADME, cell-based, Hepatocyte. The following applies: read-out: CLH.
The species entered for the next series is Homo sapiens. As to the kind of experiment: Selectivity ratio of Ki for PI3Kalpha to Ki for mTOR.
The target of series [5] is T2, Serine/threonine-protein kinase mTOR. As to the kind of experiment: Inhibition of mTOR-mediated AKT phosphorylation at Ser473 by cell based assay.
Series [6] has as its target T1, Phosphatidylinositol 4,5-bisphosphate 3-kinase catalytic subunit alpha isoform. Kind of series: Inhibition of PI3Kalpha at 100 nM.
Series [7] can be described thus: Drug excretion in rat. The conditions noted are these: in vivo, read-out: Drug excretion. In kind it is ADME, organism-based.
Series [8] in a line: Oral bioavailability in rat. In kind it is ADME, organism-based. The conditions noted are these: in vivo.
The nature of series [9]: Clearance in rat. It is filed as ADME, organism-based. The following applies: in vivo.
Series [10] can be described thus: Half life in rat. The following applies: in vivo. It is filed as ADME, organism-based.
The next series deals with Salmonella typhimurium. Kind of series: Genotoxicity in Salmonella typhimurium. It is filed as toxicity, organism-based. The following applies: salmonella enterica subsp. enterica serovar typhimurium.
In a further series the target is CYP2D6 (Homo sapiens, UniProt P10635). Kind of series: Inhibition of CYP2D6 at 3 uM. It is filed as ADME.
In another series the target is T3, CYP1A2 (Homo sapiens, UniProt P05177).
T3 sequence (P05177 whole entry): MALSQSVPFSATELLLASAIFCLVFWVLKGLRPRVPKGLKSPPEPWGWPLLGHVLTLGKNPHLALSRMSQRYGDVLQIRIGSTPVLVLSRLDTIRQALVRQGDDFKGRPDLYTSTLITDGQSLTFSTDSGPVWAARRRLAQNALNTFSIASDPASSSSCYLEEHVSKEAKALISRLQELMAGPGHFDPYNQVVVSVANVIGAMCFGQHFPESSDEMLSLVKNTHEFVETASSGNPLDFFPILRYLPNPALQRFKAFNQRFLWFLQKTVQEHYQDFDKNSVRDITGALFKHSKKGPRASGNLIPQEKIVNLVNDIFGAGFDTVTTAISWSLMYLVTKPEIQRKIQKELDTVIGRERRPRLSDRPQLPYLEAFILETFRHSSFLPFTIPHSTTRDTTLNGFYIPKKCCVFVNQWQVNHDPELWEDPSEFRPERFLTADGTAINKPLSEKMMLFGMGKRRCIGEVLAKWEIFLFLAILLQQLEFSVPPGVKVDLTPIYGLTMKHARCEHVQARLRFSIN
As to the kind of experiment: Inhibition of CYP1A2 at 3 uM. In kind it is ADME.

Another series concerns the target CYP2C9 (Homo sapiens, UniProt P11712). As to the kind of experiment: Inhibition of CYP2C9 at 3 uM. It is filed as ADME.
In series [11] the target is T2, Serine/threonine-protein kinase mTOR. As to the kind of experiment: Inhibition of mTOR-mediated ribosomal protein S6 kinase phosphorylation by cell based assay.
The next series concerns the target CYP3A4 (Homo sapiens, UniProt P08684). As to the kind of experiment: Inhibition of CYP3A4 at 3 uM. In kind it is ADME.

T1 sequence (P42336 whole entry, canonical isoform): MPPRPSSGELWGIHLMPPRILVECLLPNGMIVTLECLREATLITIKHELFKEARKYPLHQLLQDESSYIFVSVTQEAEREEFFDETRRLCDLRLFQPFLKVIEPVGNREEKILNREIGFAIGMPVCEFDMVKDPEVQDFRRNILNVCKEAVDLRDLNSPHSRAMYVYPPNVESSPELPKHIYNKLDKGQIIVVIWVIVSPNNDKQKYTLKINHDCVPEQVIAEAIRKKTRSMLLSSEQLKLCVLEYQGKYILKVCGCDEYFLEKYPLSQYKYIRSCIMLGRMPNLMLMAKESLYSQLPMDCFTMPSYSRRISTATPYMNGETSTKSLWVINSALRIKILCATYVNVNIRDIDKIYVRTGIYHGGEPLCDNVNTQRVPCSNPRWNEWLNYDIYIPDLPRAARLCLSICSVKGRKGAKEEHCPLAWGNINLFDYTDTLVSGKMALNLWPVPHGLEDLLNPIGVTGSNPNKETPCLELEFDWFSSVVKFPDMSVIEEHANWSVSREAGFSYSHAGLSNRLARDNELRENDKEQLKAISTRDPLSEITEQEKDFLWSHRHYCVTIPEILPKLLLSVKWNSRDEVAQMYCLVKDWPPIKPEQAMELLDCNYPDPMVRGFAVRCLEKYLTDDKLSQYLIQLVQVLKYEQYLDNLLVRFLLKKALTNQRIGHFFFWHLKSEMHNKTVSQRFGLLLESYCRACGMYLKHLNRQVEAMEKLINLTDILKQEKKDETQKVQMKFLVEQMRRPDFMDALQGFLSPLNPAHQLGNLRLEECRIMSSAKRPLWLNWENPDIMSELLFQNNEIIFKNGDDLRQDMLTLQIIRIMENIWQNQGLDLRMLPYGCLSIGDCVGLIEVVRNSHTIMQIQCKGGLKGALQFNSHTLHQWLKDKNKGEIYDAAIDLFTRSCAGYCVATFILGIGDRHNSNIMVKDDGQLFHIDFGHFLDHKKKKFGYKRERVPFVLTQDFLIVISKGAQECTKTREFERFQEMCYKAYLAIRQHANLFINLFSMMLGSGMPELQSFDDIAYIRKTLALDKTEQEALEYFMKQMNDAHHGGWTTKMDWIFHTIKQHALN
Chain of CYP2C9 (P11712 whole entry): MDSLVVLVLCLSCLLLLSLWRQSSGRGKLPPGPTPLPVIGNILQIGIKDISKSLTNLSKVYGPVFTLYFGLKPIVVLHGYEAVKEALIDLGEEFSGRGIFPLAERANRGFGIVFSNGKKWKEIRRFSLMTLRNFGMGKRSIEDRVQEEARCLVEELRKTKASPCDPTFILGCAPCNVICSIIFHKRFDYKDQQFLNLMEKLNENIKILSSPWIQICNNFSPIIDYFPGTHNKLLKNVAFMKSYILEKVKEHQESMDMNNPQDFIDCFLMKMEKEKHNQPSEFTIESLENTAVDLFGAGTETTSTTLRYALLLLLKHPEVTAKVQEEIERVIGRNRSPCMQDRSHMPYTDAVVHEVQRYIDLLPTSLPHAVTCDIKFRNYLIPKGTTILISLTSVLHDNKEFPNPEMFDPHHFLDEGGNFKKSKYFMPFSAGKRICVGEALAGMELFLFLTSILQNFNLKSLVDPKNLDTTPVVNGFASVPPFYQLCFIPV
Chain of CYP3A4 (P08684 whole entry): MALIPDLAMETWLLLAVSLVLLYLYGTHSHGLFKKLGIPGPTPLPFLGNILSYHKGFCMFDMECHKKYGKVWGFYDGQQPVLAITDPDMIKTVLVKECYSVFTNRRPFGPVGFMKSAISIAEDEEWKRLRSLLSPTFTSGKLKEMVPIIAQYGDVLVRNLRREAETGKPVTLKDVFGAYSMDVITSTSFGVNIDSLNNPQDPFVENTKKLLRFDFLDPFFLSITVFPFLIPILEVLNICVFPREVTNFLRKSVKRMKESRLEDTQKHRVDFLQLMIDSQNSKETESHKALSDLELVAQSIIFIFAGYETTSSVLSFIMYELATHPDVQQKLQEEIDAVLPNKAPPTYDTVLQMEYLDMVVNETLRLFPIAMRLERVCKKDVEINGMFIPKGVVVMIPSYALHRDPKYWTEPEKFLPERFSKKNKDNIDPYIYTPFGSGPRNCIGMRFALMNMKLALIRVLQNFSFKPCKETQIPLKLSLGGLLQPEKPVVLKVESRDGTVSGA
Chain of CYP2D6 (P10635 whole entry): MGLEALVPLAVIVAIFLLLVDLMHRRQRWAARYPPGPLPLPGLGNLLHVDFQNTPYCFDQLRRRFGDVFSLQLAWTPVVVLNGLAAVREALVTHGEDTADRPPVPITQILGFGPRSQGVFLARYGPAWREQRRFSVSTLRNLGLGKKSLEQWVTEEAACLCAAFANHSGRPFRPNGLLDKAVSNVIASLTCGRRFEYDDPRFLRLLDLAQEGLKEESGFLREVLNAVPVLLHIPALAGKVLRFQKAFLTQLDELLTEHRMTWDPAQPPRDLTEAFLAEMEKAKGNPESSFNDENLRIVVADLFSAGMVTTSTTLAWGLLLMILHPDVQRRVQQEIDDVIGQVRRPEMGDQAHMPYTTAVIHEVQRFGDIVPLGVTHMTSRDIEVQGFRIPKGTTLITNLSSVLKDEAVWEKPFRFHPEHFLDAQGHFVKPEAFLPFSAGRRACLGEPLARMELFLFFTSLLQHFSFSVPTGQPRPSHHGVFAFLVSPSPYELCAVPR

In the case of `CCNC(=O)Nc1ccc(-c2nc3c(c(N4CCOC[C@H]4C)n2)CS(=O)(=O)CC3)cc1`, the Ki (usually a measure of affinity in units of concentration, obtained from inhibition or displacement) in series [1] is greater than 4550 nM; in [2], 52 nM.
Regarding `CCNC(=O)Nc1ccc(-c2nc3c(c(N4CCOC[C@@H]4C)n2)S(=O)(=O)CCC3)cc1`, the inhibition constant (Ki) in series [1] was greater than 4550 nM; in series [2] it was 50 nM. The microsomal CLint in [3] came to 58 µL/min/mg. The hepatocyte CLint in [4] worked out at 28 µL/min/1e6 cells.
Turning to `CCNC(=O)Nc1ccc(-c2nc3c(c(N4CCOCC4)n2)CS(=O)(=O)C3)cc1`, the Ratio Ki in the series filed under Homo sapiens is 20. Further, the Ki in series [1] stood at 514 nM; in series [2] it was 25 nM. In [3], the microsomal CLint was less than 8 µL/min/mg. For the same compound, the hepatocyte CLint in series [4] is less than 2 µL/min/1e6 cells.
As to `CCNC(=O)Nc1ccc(-c2nc3c(c(N4CCOCC4)n2)CS(=O)(=O)CC3)cc1`, the Ki in [1] is greater than 4550 nM; in series [2], 50 nM. Moreover, in series [3], the microsomal CLint was less than 8 µL/min/mg. Besides, the hepatocyte CLint in series [4] was less than 2 µL/min/1e6 cells.
Regarding `CCNC(=O)Nc1ccc(-c2nc3c(c(N4C[C@H]5CC[C@@H](C4)O5)n2)CS(=O)(=O)C3)cc1`, in series [5], the IC50 (as a rule, the concentration needed to halve the response being measured) is 84 nM. Moreover, the inhibition (usually the relative decrease from the control value, in per cent) in [6] is 18%. This compound registered a Ki in series [2] of 7 nM.
On the same counts, the results for `CCNC(=O)Nc1ccc(-c2nc3c(c(N4C[C@@H]5C[C@H]4CO5)n2)CS(=O)(=O)C3)cc1` are 1290 nM, 3% and 62 nM.
Turning to `CCNC(=O)Nc1ccc(-c2nc3c(c(N4CCOC[C@@H]4C)n2)CS(=O)(=O)CC3)cc1`, in the series filed under Homo sapiens, the Ratio Ki was greater than 500. Moreover, the dose excreted in series [7] was found to be 5.5%. Also, the Ki is greater than 4550 nM in series [1] and 8 nM in [2]. In addition, in series [8], the bioavailability (as a rule, dose-corrected exposure relative to a reference, in per cent) was determined as 30%. Besides, in series [9], the clearance (usually the volume of plasma or blood freed of the substance per unit of time) amounted to 66.2 mL/min/kg. Further, the half-life (in general, the time needed for the level to fall by half in the phase considered) in series [10] was 1.05 h. Moreover, in the series with Salmonella typhimurium, the Activity result was “Non-toxic”. The microsomal CLint in series [3] is 8.7 µL/min/mg. In addition, the inhibition at 3 µM at CYP2D6, on CYP1A2, at CYP2C9 and against CYP3A4 was no more than 25% in each case. The IC50 in series [5] is 48 nM; in [11], 6 nM. For the same compound, the hepatocyte CLint in series [4] was less than 2 µL/min/1e6 cells.
Regarding `CCNC(=O)Nc1ccc(-c2nc3c(c(N4C[C@H]5CC[C@@H](C4)O5)n2)CS(=O)(=O)CC3)cc1`, the results for the Ki in series [1] and in series [2] were 3000 nM and 5 nM, respectively. Also, the IC50 in [5] came to 55 nM.
Turning to `CCNC(=O)Nc1ccc(-c2nc3c(c(N4CCOC[C@H]4C)n2)S(=O)(=O)CC3)cc1`, the microsomal CLint in series [3] amounted to 25 µL/min/mg. The inhibition in [6] was determined as 7%. For the same compound, the Ki in [2] is 120 nM. In addition, in series [4], the hepatocyte CLint was 11 µL/min/1e6 cells.
